{"source": "patent US20260199263A1", "about": "“Composition For The Modified Release Of Biological Polyamines, In Particular Spermidine” (GIULIANI S.P.A., priority 2022, published 2026)", "key": {"[1]": {"settings": "data known from the literature, cited from earlier work"}, "[2]": {"assay": "Solubility evaluation of PEA and SPE in water and ethanol with emulsifiers (tests A-H)", "type": "physicochemical", "settings": "for dissolution behaviour in test H: test H: 50 mg PEA + 50 mg SUC in 95% vol EtOH (about 2.5 g), then 500 mg water, then 50 mg SPE; for solubility: thermodynamic from solid", "protocol": "First of all, an evaluation of the solubility of PEA and SPE in water and ethanol was carried out in the presence of two different concentrations of the two emulsifiers.\nIn both test C and test D, water was added initially up to 1 ml, then to 2 ml and finally to 5 ml.\nIn test H, 50 mg of PEA (crushed in the mortar because it was initially in the form of flakes) was placed in a 10 ml test tube and 50 mg of SUC were added.\n300 mg of water were then added. At the time of addition, cloudiness was observed, but when heated it returned to being a clear solution again. Another 200 mg of water were then added, and the same behavior was observed. This time, it was necessary to heat for a longer time to obtain a clear solution again.\n1) PEA was initially present in the form of flakes. It was reduced in size in the mortar before testing.\n2) Emulsifiers were added to PEA before adding solvents."}}, "note": "Where two headings read alike, the source gives them in different places.", "data": [{"smiles": "NCCCCNCCCN", "note": "[SPE, N-(3-aminopropyl)butane-1,4-diamine·3HCl]", "values": [{"measurement": "solubility in water", "setting": "[1]", "value": 50, "unit": "mg/mL"}, {"measurement": "dissolution behaviour in test H", "setting": "[2]; heated", "value": "dissolved immediately"}, {"measurement": "solubility", "setting": "[2]; water, test A: 50 mg SPE, H2O q.s. to 1 g, read-out: solubility of SPE in water", "value": 50, "unit": "mg/mL"}]}, {"smiles": "CCCCCCCCCCCCCCCC(=O)NCCO", "note": "[PEA, N-(2-hydroxyethyl)hexadecanamide]", "values": [{"measurement": "solubility in ethanol", "setting": "[1]", "value": 16, "unit": "mg/mL"}, {"measurement": "solubility in water", "setting": "[1]; in words", "value": "insoluble"}, {"measurement": "solubility", "setting": "[2]; ethanol, organic solvent or mixture, test G: 32 mg PEA, EtOH q.s. to 2 g, read-out: solubility of PEA in ethanol", "value": 16, "unit": "mg/mL"}, {"measurement": "solubility of PEA in water", "setting": "[2]; test B: 50 mg PEA, H2O q.s. to 1 g", "value": "insolubility"}, {"measurement": "solubility of PEA in water with emulsifier MGE", "setting": "[2]; test C: PEA/MGE=10:1 w/w, H2O up to 5 ml", "value": "does not seem to improve the solubility"}, {"measurement": "solubility of PEA in water with emulsifier SUC", "setting": "[2]; test D: PEA/SUC=10:1 w/w, H2O up to 5 ml", "value": "does not seem to improve the solubility"}, {"measurement": "solubility of PEA in water with emulsifier MGE", "setting": "[2]; test E: PEA/MGE 1:1 w/w", "value": "comparable to test C"}, {"measurement": "solubility of PEA in water with emulsifier SUC", "setting": "[2]; test F: PEA/SUC 1:1 w/w", "value": "appears to increase slightly, but not sufficiently"}, {"measurement": "dissolution behaviour in test H", "setting": "[2]; heated", "value": "perfectly clear solution"}, {"measurement": "Hot solubility", "setting": "[2]; tests C and D, PEA in water with emulsifier 10:1 w/w, heated", "value": "does not appear to have significant improvements"}]}]}
